Values quoted from earlier work as cited in US20020090664A1, “Methods for measuring stress in mammals” (priority 2000, published 2002).

Tested on: salivary cortisol
Conditions: adults exposed to the fragrance before the stressful event, compared with challenge without fragrance; Tanizawa, JP Patent No.11-19076

Cc1c[nH]c2ccccc12 [skatole]
effect of fragrance on stress induced release of cortisol (salivary cortisol levels): opposite effect
